Assay results: publication PMC9532399, “The lysosomal transporter TAPL has a dual role as peptide translocator and phosphatidylserine floppase” (Nature Communications, 2022)

How the values were obtained:
mouse TAPL ΔTMD0 = target: T1, mouse TAPL ΔTMD0 (Mus musculus, UniProt Q9JJ59); test: Dithionite-based flip-flop (floppase) assay of NBD*-labeled lipids, ΔTMD0 proteoliposomes; format: biochemical; conditions: for fluorescence remaining after dithionite: 10 mM dithionite
T1 construct: thrombin cleavage site (C); eGFP (C); 10XHis (C); made in house; host or cells: Trichoplusia ni High Five (Hi5) insect cells, baculovirus (pVL1393)
T1 sequence (Q9JJ59 143-762): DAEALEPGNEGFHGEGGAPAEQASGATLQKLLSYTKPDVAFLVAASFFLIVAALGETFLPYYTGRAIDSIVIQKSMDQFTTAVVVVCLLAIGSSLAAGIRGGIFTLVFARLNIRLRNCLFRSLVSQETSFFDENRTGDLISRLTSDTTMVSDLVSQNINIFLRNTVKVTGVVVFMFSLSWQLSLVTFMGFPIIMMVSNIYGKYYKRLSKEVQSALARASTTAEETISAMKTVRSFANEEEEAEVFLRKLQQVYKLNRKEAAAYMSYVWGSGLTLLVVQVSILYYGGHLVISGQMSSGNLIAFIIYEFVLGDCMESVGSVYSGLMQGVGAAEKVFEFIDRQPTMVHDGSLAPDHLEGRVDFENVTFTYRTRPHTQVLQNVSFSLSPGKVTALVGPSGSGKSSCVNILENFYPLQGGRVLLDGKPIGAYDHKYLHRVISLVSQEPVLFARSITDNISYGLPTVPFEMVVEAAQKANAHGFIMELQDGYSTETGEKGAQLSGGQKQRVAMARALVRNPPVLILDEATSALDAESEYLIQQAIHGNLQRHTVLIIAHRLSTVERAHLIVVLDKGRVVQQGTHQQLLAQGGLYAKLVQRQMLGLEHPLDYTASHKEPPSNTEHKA
Method: (§1) All lipids used in reconstitution were purchased from Avanti Polar Lipids, Inc. (purity > 99%). The in vitro flip–flop assay was performed using NBD* dye-labeled proteoliposomes as described previously. Briefly, E. coli polar lipids and egg PC were mixed in a 1:1 molar ratio, and 0.5% (mol/mol) NBD*-lipid was added. The lipid mixture was then dried under nitrogen gas. The NBD*-lipids used were 18:1-06:0 NBD*-PS (1-oleoyl-2-{6-[(7-nitro-2-1,3-benzoxadiazol-4-yl)amino]hexanoyl}-sn-glycero-3-phosphoserine), 18:1-06:0 NBD*-PC (1-oleoyl-2-{6-[(7-nitro-2-1,3-benzoxadiazol-4-yl)amino]hexanoyl}-sn-glycero-3-phosphocholine), 18:1-06:0 NBD*-PG (1-oleoyl-2-{6-[(7-nitro-2-1,3-benzoxadiazol-4-yl)amino]hexanoyl}-sn-glycero-3-[phospho-rac-(1-glycerol)]), 18:1-06:0 NBD*-PE (1-oleoyl-2-{6-[(7-nitro-2-1,3-benzoxadiazol-4-yl)amino]hexanoyl}-sn-glycero-3-phosphoethanolamine), and 25-NBD*-Cholesterol (25-[N-[(7-nitro-2-1,3-benzoxadiazol-4-yl)methyl]amino]−27-norcholesterol). Thin lipid films were solubilized in 20 mM HEPES–NaOH pH 8.0, 200 mM NaCl and 5% (v/v) glycerol, incubated at RT for 30 min and subjected to 5 freeze–thaw cycles. After extrusion with a Mini-Extruder at 65 °C, final lipid concentrations were determined by phosphorus assays. Briefly, 10 μL of extruded lipid was added to 10 μL of 2% (w/v) ammonium molybdate and 300 μL of concentrated perchloric acid. The mixture was heated at 250 °C for 30 min, then cooled to RT and mixed with 1.5 mL of 0.4% (w/v) ammonium molybdate and 250 μL of 9% (w/v) L-ascorbic acid. It was again heated at 100 °C for 6 min and cooled to RT. Lipid concentrations were calculated from the absorbance at 820 nm using a standard curve prepared with NaH2PO4 solution. After accurately determining the lipid concentration, DM-purified protein and 5 mM lipid suspension (solubilized in 5 mM DM) were mixed 1:25 (w/w). After incubation at 4 °C for 1.5 h, DM detergent was removed with 75 mg Bio-beads SM-2 by periodic gentle shaking for 1 h at 4 °C (Supplementary Fig. 5a). The beads were replaced once, followed by an additional incubation at 4 °C for 2 h to completely remove detergent. The resulting proteoliposomes were collected by ultracentrifugation at 200,000×g for 1.5 h at 4 °C.
(§2) To measure the flip–flop activity, 10 μL of 2 mM NBD*-labeled proteoliposomes were added to 100 μL of reaction buffer (20 mM HEPES–NaOH pH 8.0, 200 mM NaCl, 5 mM ATP and 5% (v/v) glycerol) in the presence of 2 mM MgCl2 (or NaCl), and incubated at 37 °C for 1 h. The mixture was transferred to a 96-well plate and time-dependent fluorescence (λex/λem = 460/538 nm) was recorded every 30 s for 26 min using a fluorescence spectrophotometer (Gemini XPS). After the baseline fluorescence had stabilized, 10 mM sodium dithionite was added to quench the fluorescence of NBD*-lipid present in the outer leaflets of the liposomes. The initial rapid drop and subsequent slow decline in fluorescence intensity were monitored. When a new steady state was established, 1% (v/v) Triton X-100 was added to completely disrupt the liposomes. The net percentage of NBD*-lipid translocated across the lipid bilayer was calculated from the following equation[72]: the percentage of protected NBD*-lipid in the inner leaflet = [(FD−F0)/(FT−F0)]×100, and that of accessible NBD*-lipid in the outer leaflet = [(FT−FD)/(FT−F0)]×100, where FT is the total fluorescence of the sample before the addition of dithionite, FD is the fluorescence of the sample after quenching with dithionite, and F0 is any residual fluorescence of the sample after solubilization with Triton X-100. Fluorescence values (FT, FD, F0) were calculated as the averages of 5 points on the respective plateau lines. The ΔTMD0-mediated lipid floppase activity was determined by subtracting the percentage of NBD*-lipid fluorescence measured in the presence of Na^+/ATP from that measured in the presence of Mg^2+/ATP.

TAPL E664Q mutant = test: Dithionite-based flip-flop assay, E664Q proteoliposomes; format: biochemical, mouse; conditions: for NBD*-PS fluorescence intensity (net percentage transported): E664Q
Method: as §1, with “After incubation at 4 °C for 1.5 h, DM detergent was removed with 75 mg Bio-beads SM-2 by periodic gentle shaking for 1 h at 4 °C (Supplementary Fig. 5a). The beads were replaced once, followed by an additional incubation at 4 °C for 2 h to completely remove detergent. The resulting proteoliposomes were collected by ultracentrifugation at 200,000×g for 1.5 h at 4 °C.” left out
as §2, with “When a new steady state was established, 1% (v/v) Triton X-100 was added to completely disrupt the liposomes.” left out

RRYQNSTC^5-IAFL [9-mer, 5-IAF-labeled peptide of 9 residues (RRYQNSTC^5-IAFL)]
effect on translocation of NBD*-PS (mouse TAPL ΔTMD0; 10% (mol/mol) unlabeled POPS, or presence of the 9-mer peptide): inhibited

CCCCCCCC/C=C\CCCCCCCC(=O)OC[C@H](COP(=O)(O)OC[C@H](N)C(=O)O)OC(=O)CCCCCNc1ccc([N+](=O)[O-])c2nonc12 [NBD*-PS, 1-oleoyl-2-{6-[(7-nitro-2-1,3-benzoxadiazol-4-yl)amino]hexanoyl}-sn-glycero-3-phosphoserine]
difference of inner leaflet fluorescence with and without hydrolysable ATP (mouse TAPL ΔTMD0; Mg2+/ATP minus Na+/ATP): ~ 4.5% | NBD*-PS fluorescence intensity (net percentage transported outer to inner leaflet) (mouse TAPL ΔTMD0; Mg2+/ATP minus Na+/ATP, 5 mM ATP, 37 °C 1 h, no peptide, no POPS, mean n=9): 4.53% | NBD*-PS fluorescence intensity (net percentage transported) (mouse TAPL ΔTMD0; Mg2+/ATP minus Na+/ATP, with 9-mer peptide, mean n=5): 2.081% | NBD*-PS fluorescence intensity (net percentage transported) (mouse TAPL ΔTMD0; Mg2+/ATP minus Na+/ATP, with 10% (mol/mol) POPS, mean n=5): 2.6371% | fluorescence remaining after dithionite (mouse TAPL ΔTMD0; Mg2+/ATP, % of original value): ~ 36.2% | ATP-dependent lipid transport by ΔTMD0 (mouse TAPL ΔTMD0; NBD*-labeled lipid, PE, PG, PC and cholesterol data not shown): high | fluorescence remaining after dithionite (mouse TAPL ΔTMD0; Na+/ATP, % of original fluorescence): ~ 31.7% | NBD*-PS fluorescence intensity (net percentage transported) (mouse TAPL ΔTMD0; no peptide, no POPS, replicate I): 5.0115% | NBD*-PS fluorescence intensity (net percentage transported) (mouse TAPL ΔTMD0; no peptide, no POPS, replicate II): 5.082% | NBD*-PS fluorescence intensity (net percentage transported) (mouse TAPL ΔTMD0; no peptide, no POPS, replicate III): 5.234% | NBD*-PS fluorescence intensity (net percentage transported) (mouse TAPL ΔTMD0; no peptide, no POPS, replicate IV): 3.911% | NBD*-PS fluorescence intensity (net percentage transported) (mouse TAPL ΔTMD0; no peptide, no POPS, replicate IX): 4.577% | NBD*-PS fluorescence intensity (net percentage transported) (mouse TAPL ΔTMD0; no peptide, no POPS, replicate V): 3.922% | NBD*-PS fluorescence intensity (net percentage transported) (mouse TAPL ΔTMD0; no peptide, no POPS, replicate VI): 4.247% | NBD*-PS fluorescence intensity (net percentage transported) (mouse TAPL ΔTMD0; no peptide, no POPS, replicate VII): 4.366% | NBD*-PS fluorescence intensity (net percentage transported) (mouse TAPL ΔTMD0; no peptide, no POPS, replicate VIII): 4.416% | NBD*-PS fluorescence intensity (net percentage transported) (mouse TAPL ΔTMD0; with 9-mer peptide, replicate I): 2.499% | NBD*-PS fluorescence intensity (net percentage transported) (mouse TAPL ΔTMD0; with 9-mer peptide, replicate II): 2.553% | NBD*-PS fluorescence intensity (net percentage transported) (mouse TAPL ΔTMD0; with 9-mer peptide, replicate III): 1.795% | NBD*-PS fluorescence intensity (net percentage transported) (mouse TAPL ΔTMD0; with 9-mer peptide, replicate IV): 1.566% | NBD*-PS fluorescence intensity (net percentage transported) (mouse TAPL ΔTMD0; with 9-mer peptide, replicate V): 1.9894% | NBD*-PS fluorescence intensity (net percentage transported) (mouse TAPL ΔTMD0; with 10% (mol/mol) POPS, replicate I): 2.817% | NBD*-PS fluorescence intensity (net percentage transported) (mouse TAPL ΔTMD0; with 10% (mol/mol) POPS, replicate II): 2.678% | NBD*-PS fluorescence intensity (net percentage transported) (mouse TAPL ΔTMD0; with 10% (mol/mol) POPS, replicate III): 2.164% | NBD*-PS fluorescence intensity (net percentage transported) (mouse TAPL ΔTMD0; with 10% (mol/mol) POPS, replicate IV): 2.878% | NBD*-PS fluorescence intensity (net percentage transported) (mouse TAPL ΔTMD0; with 10% (mol/mol) POPS, replicate V): 2.648% | true active floppase activity of the transporter (mouse TAPL ΔTMD0; ΔTMD0 minus E664Q): ~ 2.6% | NBD*-PS fluorescence intensity (net percentage transported) (TAPL E664Q mutant; Mg2+/ATP minus Na+/ATP, no peptide, no POPS, mean n=3): 1.892% | NBD*-PS fluorescence intensity (net percentage transported) (TAPL E664Q mutant; replicate I): 1.638% | NBD*-PS fluorescence intensity (net percentage transported) (TAPL E664Q mutant; replicate II): 1.974% | NBD*-PS fluorescence intensity (net percentage transported) (TAPL E664Q mutant; replicate III): 2.062% | movement of NBD*-PS to the inner leaflet (TAPL E664Q mutant; catalytically inactive E664Q mutant): ~ 1.9%
